Laboratory results as given in ChEMBL document CHEMBL2150884, “Inhibition of cell proliferation by quindoline derivative (SYUIQ-05) through its preferential interaction with c-myc promoter G-quadruplex” (J Med Chem, 2011).
Calls of active or inactive are those of the source. No cut-off for these calls is given here.

Legend:
[1] = system: Nucleic Acid; test: Binding affinity to c-myc Pu27 DNA G-quadruplex in human CA46 cells assessed as down regulation of c-myc protein expression at 0.05 to 0.1 uM after 4 days by Western blot method; type: cell-based
[2] = system: Nucleic Acid; test: Binding affinity to c-myc Pu27 DNA G-quadruplex in human Ramos cells assessed as down regulation of TERT protein expression at 0.05 to 0.1 uM after 4 days by Western blot method; type: cell-based
[3] = system: Nucleic Acid; test: Binding affinity to c-myc Pu27 DNA G-quadruplex in human CA46 cells assessed as down regulation of TERT transcription at 0.1 uM after 4 days by qRT-PCR; type: cell-based
[4] = system: Nucleic Acid; test: Binding affinity to c-myc Pu27 DNA G-quadruplex in human Ramos cells assessed as down regulation of c-myc protein expression at 0.05 to 0.1 uM after 4 days by Western blot method; type: cell-based
[5] = system: Nucleic Acid; test: Binding affinity to c-myc Pu27 DNA G-quadruplex in human Ramos cells assessed as down regulation of c-myc transcription at 0.1 uM after 4 days by qRT-PCR; type: cell-based
[6] = system: Nucleic Acid; test: Binding affinity to c-myc Pu27 DNA G-quadruplex in human Ramos cells assessed as down regulation of TERT transcription at 0.1 uM after 4 days by qRT-PCR; type: cell-based
[7] = system: Nucleic Acid; test: Binding affinity to c-myc Pu27 DNA G-quadruplex in human CA46 cells assessed as down regulation of c-myc transcription at 0.1 uM after 4 days by qRT-PCR; type: cell-based
[8] = system: Nucleic Acid; test: Inhibition of NM23-H2 interaction with c-myc DNA G-quadruplex in human HeLa cells assessed as inhibition of c-myc expression at 0.1 uM measured by quantitative RT-PCR analysis; type: cell-based
[9] = system: Nucleic Acid; test: Inhibition of NM23-H2 interaction with wild type c-myc DNA G-quadruplex expressed in human HeLa cells assessed as dissociation of NM23-H2 from c-myc promoter at 0.05 to 0.1 uM by Ch-IP assay; type: cell-based
[10] = system: Nucleic Acid; test: Inhibition of NM23-H2 interaction with c-myc mutant promoter DNA expressed in human HeLa cells assessed as dissociation of NM23-H2 from c-myc promoter at 0.05 to 0.1 uM by Ch-IP assay; type: cell-based
[11] = molecular target: Telomerase reverse transcriptase (Homo sapiens) (UniProt O14746); test: […] in human Ramos cells at 0.1 uM for 16 days by TRF length assay; type: cell-based
Chain of Telomerase reverse transcriptase (Homo sapiens) (O14746 whole entry): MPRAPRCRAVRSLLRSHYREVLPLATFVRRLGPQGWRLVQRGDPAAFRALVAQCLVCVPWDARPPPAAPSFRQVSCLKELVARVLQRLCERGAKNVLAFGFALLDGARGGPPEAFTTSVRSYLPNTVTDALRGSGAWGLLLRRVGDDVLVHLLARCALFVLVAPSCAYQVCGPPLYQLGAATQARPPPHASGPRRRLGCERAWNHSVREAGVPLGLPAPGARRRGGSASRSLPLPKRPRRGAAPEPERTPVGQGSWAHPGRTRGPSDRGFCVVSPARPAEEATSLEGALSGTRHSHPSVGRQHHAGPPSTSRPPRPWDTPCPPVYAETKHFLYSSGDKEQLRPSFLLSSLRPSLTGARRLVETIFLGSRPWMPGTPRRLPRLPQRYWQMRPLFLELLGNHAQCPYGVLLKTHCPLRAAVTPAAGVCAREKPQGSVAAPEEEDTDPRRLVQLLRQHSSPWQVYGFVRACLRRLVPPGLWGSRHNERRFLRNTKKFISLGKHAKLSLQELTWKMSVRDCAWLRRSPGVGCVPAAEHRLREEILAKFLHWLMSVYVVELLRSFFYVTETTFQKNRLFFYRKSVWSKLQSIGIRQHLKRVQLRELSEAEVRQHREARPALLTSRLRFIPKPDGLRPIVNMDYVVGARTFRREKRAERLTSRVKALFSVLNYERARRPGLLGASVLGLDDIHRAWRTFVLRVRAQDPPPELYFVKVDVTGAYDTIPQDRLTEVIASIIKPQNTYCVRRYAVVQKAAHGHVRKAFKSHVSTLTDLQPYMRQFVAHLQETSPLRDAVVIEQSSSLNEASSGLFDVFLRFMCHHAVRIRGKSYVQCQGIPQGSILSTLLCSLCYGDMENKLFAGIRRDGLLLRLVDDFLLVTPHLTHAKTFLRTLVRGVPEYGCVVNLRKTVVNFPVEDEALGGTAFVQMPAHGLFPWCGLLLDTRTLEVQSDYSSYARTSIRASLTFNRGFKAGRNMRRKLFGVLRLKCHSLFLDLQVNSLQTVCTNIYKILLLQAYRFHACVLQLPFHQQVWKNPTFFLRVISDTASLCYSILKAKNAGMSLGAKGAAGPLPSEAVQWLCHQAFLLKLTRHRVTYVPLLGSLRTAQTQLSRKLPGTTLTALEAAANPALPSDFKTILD

[12] = molecular target: Telomerase reverse transcriptase (Homo sapiens) (UniProt O14746); test: […] in human Ramos cells at 0.05 uM for 16 days by TRF length assay; type: cell-based
[13] = molecular target: Telomerase reverse transcriptase (Homo sapiens) (UniProt O14746); test: […] in human Ramos cells at 0.05 to 0.1 uM for 16 days by TRF length assay; type: cell-based
[14] = system: Ramos; test: Induction of senescence in human Ramos cells assessed as flat cells at 0.05 to 0.1 uM after 16 days by beta galactosidase assay; type: functional, cell-based
[15] = system: Ramos; test: Induction of senescence in human Ramos cells assessed as gaint cells at 0.05 to 0.1 uM after 16 days by beta galactosidase assay; type: functional, cell-based
[16] = system: CA46; test: Induction of senescence in human CA46 cells assessed as flat cells at 0.05 to 0.1 uM after 16 days by beta galactosidase assay; type: functional, cell-based
[17] = system: CA46; test: Induction of senescence in human CA46 cells assessed as gaint cells at 0.05 to 0.1 uM after 16 days by beta galactosidase assay; type: functional, cell-based
[18] = Cytotoxicity in human GLC82 cells by MTT assay; type: functional, cell-based
[19] = system: HeLa; test: Cytotoxicity in human HeLa cells by MTT assay; type: functional, cell-based
[20] = system: HL-60; test: Cytotoxicity in human HL60 cells by MTT assay; type: functional, cell-based
[21] = system: K562; test: Cytotoxicity in human K562 cells by MTT assay; type: functional, cell-based
[22] = Cytotoxicity in human CNE2 cells by MTT assay; type: functional, cell-based; conditions: CNE-2
[23] = system: MGC-803; test: Cytotoxicity in human MGC803 cells by MTT assay; type: functional, cell-based
[24] = system: Bel-7402; test: Cytotoxicity in human Bel7402 cells by MTT assay; type: functional, cell-based
[25] = Cytotoxicity in human SUNE1 cells by MTT assay; type: functional, cell-based
[26] = system: Ramos; test: Antiproliferative activity against human Ramos cells assessed as cell viability after 20 days; type: functional, cell-based
[27] = system: CA46; test: Antiproliferative activity against cmyc NHE III1 element-deficient human CA46 cells assessed as cell viability after 20 days; type: functional, cell-based
[28] = system: Ramos; test: Antiproliferative activity against human Ramos cells assessed as cell viability at 0.05 uM after 20 days; type: functional, cell-based
[29] = system: Nucleic Acid; test: Binding affinity to G-quadruplex HTG21 assessed as change in melting temperature by FRET assay; type: nucleic-acid assay
[30] = molecular target: Nucleic Acid; test: Binding affinity to G-quadruplex HTG21 by PCR stop assay; type: nucleic-acid assay
[31] = system: Nucleic Acid; test: Binding affinity to G-quadruplex HTG21 by ITC titration assay; type: nucleic-acid assay
[32] = system: Nucleic Acid; test: Binding affinity to c-myc Pu27 DNA G-quadruplex assessed as change in melting temperature by FRET assay; type: nucleic-acid assay
[33] = molecular target: Nucleic Acid; test: Binding affinity to c-myc Pu27 DNA G-quadruplex by PCR stop assay; type: nucleic-acid assay
[34] = system: Nucleic Acid; test: Binding affinity to c-myc Pu27 DNA G-quadruplex by ITC titration assay; type: nucleic-acid assay
[35] = system: Nucleic Acid; test: Inhibition of POT1 interaction with wild type c-myc DNA G-quadruplex expressed in human HeLa cells assessed as dissociation of POT1 from c-myc promoter at 0.05 to 0.1 uM by Ch-IP assay; type: cell-based

CN(C)CCCNc1c2ccccc2nc2c1[nH]c1ccccc12
Activity [1]: Active | Activity [2]: Active | Activity [3]: inactive | Activity [4]: Active | Activity [5]: Active | Activity [6]: Active | Activity [7]: inactive | inhibition [8]: Active | inhibition [9]: Active | inhibition [10]: inactive | inhibition [11]: Active | inhibition [12]: Active | inhibition [13]: Active | Activity [14]: Active | Activity [15]: Active | Activity [16]: inactive | Activity [17]: inactive | IC50 [18]: 240 nM | IC50 [19]: 240 nM | IC50 [20]: 240 nM | IC50 [21]: 240 nM | IC50 [22]: 240 nM | IC50 [23]: 240 nM | IC50 [24]: 240 nM | IC50 [25]: 240 nM | Activity [26]: Dose-dependent effect | inhibition [27]: inactive | Activity [28]: Active | ΔTm [29]: 10 °C | IC50 [30]: 2500 nM | Ka [31]: 1.79 10^4 M^-1 | ΔTm [32]: 13 °C | IC50 [33]: 1800 nM | Ka [34]: 4.03 10^4 M^-1 | inhibition [35]: inactive
